ChEMBL document CHEMBL5046249, “Synthesis, biological evaluation and cellular localization study of fluorescent derivatives of Jiyuan Oridonin A” (Eur J Med Chem, 2022)

Assays:
[1] = Drug uptake in human HGC-27 cells assessed as increase in fluorescence intensity of green signal at 8 uM measured after 1 hr by fluorescence microscopic analysis; type: ADME, cell-based; conditions: hgc-27, 1 h
TE-1 = test: Antiproliferative activity against human TE-1 cells assessed as inhibition of cell growth measured after 72 hrs by SRB assay; type: functional, cell-based; conditions: TE-1, 72 h
PC-3 = test: Antiproliferative activity against human PC-3 cells assessed as inhibition of cell growth measured after 72 hrs by SRB assay; type: functional, cell-based; conditions: PC-3, 72 h
SW1990 = test: Antiproliferative activity against human SW1990 cells assessed as inhibition of cell growth measured after 72 hrs by SRB assay; type: functional, cell-based; conditions: SW1990, 72 h
MGC-803 = test: Antiproliferative activity against human MGC-803 cells assessed as inhibition of cell growth measured after 72 hrs by SRB assay; type: functional, cell-based; conditions: MGC-803, 72 h
HGC-27 = test: Antiproliferative activity against human HGC-27 cells assessed as inhibition of cell growth measured after 72 hrs by SRB assay; type: functional, cell-based; conditions: HGC-27, 72 h

## O=C1c2cccc3c(N4CCCCC4)ccc(c23)C(=O)N1CCOCCOCCOCCn1cc(CCCO)nn1
[1]
  Drug uptake: Not Active
TE-1
  IC50: > 32 µM
PC-3
  IC50: > 32 µM
SW1990
  IC50: > 32 µM
MGC-803
  IC50: > 32 µM
HGC-27
  IC50: > 32 µM

## C=C1C(=O)[C@]23[C@H](O)[C@H]1C[C@H](O)[C@H]2[C@]12CCCC(C)(C)[C@H]1C[C@H]3O[C@H]2O
[1]
  Drug uptake: Not Active
TE-1
  IC50: 8.82 µM
PC-3
  IC50: 8.43 µM
SW1990
  IC50: 7.36 µM
MGC-803
  IC50: 7.19 µM
HGC-27
  IC50: 4.98 µM

## C=C1C(=O)[C@]23[C@H](O)[C@H]1C[C@H](O)[C@H]2[C@]12CCCC(C)(C)[C@H]1C[C@H]3O[C@H]2OCCc1cn(CCCCN2C(=O)c3cccc4c(N5CCCCC5)ccc(c34)C2=O)nn1
TE-1
  IC50: 4.89 µM
PC-3
  IC50: 0.74 µM
SW1990
  IC50: 1.61 µM
MGC-803
  IC50: 1.51 µM
HGC-27
  IC50: 1.61 µM

## C=C1C(=O)[C@]23[C@H](O)[C@H]1C[C@H](O)[C@H]2[C@]12CCCC(C)(C)[C@H]1C[C@H]3O[C@H]2OCCCc1cn(CCN2C(=O)c3cccc4c(N5CCCCC5)ccc(c34)C2=O)nn1
TE-1
  IC50: 4.8 µM
PC-3
  IC50: 0.47 µM
SW1990
  IC50: 1.36 µM
MGC-803
  IC50: 1.23 µM
HGC-27
  IC50: 2.97 µM

## C=C1C(=O)[C@]23[C@H](O)[C@H]1C[C@H](O)[C@H]2[C@]12CCCC(C)(C)[C@H]1C[C@H]3O[C@H]2OCCCc1cn(CCCCCCN2C(=O)c3cccc4c(N5CCCCC5)ccc(c34)C2=O)nn1
TE-1
  IC50: 2.97 µM
PC-3
  IC50: 0.74 µM
SW1990
  IC50: 1.2 µM
MGC-803
  IC50: 0.91 µM
HGC-27
  IC50: 3.32 µM

## C=C1C(=O)[C@]23[C@H](O)[C@H]1C[C@H](O)[C@H]2[C@]12CCCC(C)(C)[C@H]1C[C@H]3O[C@H]2OCCCCc1cn(CCCCN2C(=O)c3cccc4c(N5CCCCC5)ccc(c34)C2=O)nn1
TE-1
  IC50: 3.89 µM
PC-3
  IC50: 0.91 µM
SW1990
  IC50: 0.86 µM
MGC-803
  IC50: 1.69 µM
HGC-27
  IC50: 1.82 µM

## [N-]=[N+]=NCCOCCOCCN1C(=O)c2cccc3c(N4CCCCC4)ccc(c23)C1=O
TE-1
  IC50: > 32 µM
PC-3
  IC50: > 32 µM
SW1990
  IC50: > 32 µM
MGC-803
  IC50: > 32 µM
HGC-27
  IC50: > 32 µM

## C=C1C(=O)[C@]23[C@H](O)[C@H]1C[C@H](O)[C@H]2[C@]12CCCC(C)(C)[C@H]1C[C@H]3O[C@H]2OCCCc1cn(CCCCCN2C(=O)c3cccc4c(N5CCCCC5)ccc(c34)C2=O)nn1
TE-1
  IC50: 3.94 µM
PC-3
  IC50: 1.67 µM
SW1990
  IC50: 1.38 µM
MGC-803
  IC50: 1.53 µM
HGC-27
  IC50: 3.31 µM

## C=C1C(=O)[C@]23[C@H](O)[C@H]1C[C@H](O)[C@H]2[C@]12CCCC(C)(C)[C@H]1C[C@H]3O[C@H]2OCCCCCCc1cn(CCCCCN2C(=O)c3cccc4c(N5CCCCC5)ccc(c34)C2=O)nn1
TE-1
  IC50: 3.45 µM
PC-3
  IC50: 3.89 µM
SW1990
  IC50: 4.59 µM
MGC-803
  IC50: 4.18 µM
HGC-27
  IC50: 2.28 µM

## C#CCCCCCCO[C@@H]1O[C@@H]2C[C@@H]3C(C)(C)CCC[C@]13[C@@H]1[C@@H](O)C[C@H]3C(=C)C(=O)[C@@]21[C@@H]3O
TE-1
  IC50: 3.18 µM
PC-3
  IC50: 2.88 µM
SW1990
  IC50: 3.26 µM
MGC-803
  IC50: 1.97 µM
HGC-27
  IC50: 3.01 µM

## C=C1C(=O)[C@]23[C@H](O)[C@H]1C[C@H](O)[C@H]2[C@]12CCCC(C)(C)[C@H]1C[C@H]3O[C@H]2OCCCCCc1cn(CCCCN2C(=O)c3cccc4c(N5CCCCC5)ccc(c34)C2=O)nn1
TE-1
  IC50: 5.13 µM
PC-3
  IC50: 1.34 µM
SW1990
  IC50: 4.65 µM
MGC-803
  IC50: 2.72 µM
HGC-27
  IC50: 3.01 µM

## C=C1C(=O)[C@]23[C@H](O)[C@H]1C[C@H](O)[C@H]2[C@]12CCCC(C)(C)[C@H]1C[C@H]3O[C@H]2OCCc1cn(CCCCCN2C(=O)c3cccc4c(N5CCCCC5)ccc(c34)C2=O)nn1
TE-1
  IC50: 3.05 µM
PC-3
  IC50: 0.5 µM
SW1990
  IC50: 2.44 µM
MGC-803
  IC50: 1.51 µM
HGC-27
  IC50: 2.45 µM

## C#CCCCCCO[C@@H]1O[C@@H]2C[C@@H]3C(C)(C)CCC[C@]13[C@@H]1[C@@H](O)C[C@H]3C(=C)C(=O)[C@@]21[C@@H]3O
TE-1
  IC50: 2.44 µM
PC-3
  IC50: 2.45 µM
SW1990
  IC50: 2.91 µM
MGC-803
  IC50: 3.15 µM
HGC-27
  IC50: 2.89 µM

## C=C1C(=O)[C@]23[C@H](O)[C@H]1C[C@H](O)[C@H]2[C@]12CCCC(C)(C)[C@H]1C[C@H]3O[C@H]2OCCc1cn(CCCN2C(=O)c3cccc4c(N5CCCCC5)ccc(c34)C2=O)nn1
TE-1
  IC50: 3.04 µM
PC-3
  IC50: 0.8 µM
SW1990
  IC50: 0.97 µM
MGC-803
  IC50: 1.97 µM
HGC-27
  IC50: 2.29 µM

## C=C1C(=O)[C@]23[C@H](O)[C@H]1C[C@H](O)[C@H]2[C@]12CCCC(C)(C)[C@H]1C[C@H]3O[C@H]2OCCCc1cn(CCCN2C(=O)c3cccc4c(N5CCCCC5)ccc(c34)C2=O)nn1
TE-1
  IC50: 3.54 µM
PC-3
  IC50: 1.24 µM
SW1990
  IC50: 1.13 µM
MGC-803
  IC50: 1.32 µM
HGC-27
  IC50: 4.11 µM

## [N-]=[N+]=NCCOCCN1C(=O)c2cccc3c(N4CCCCC4)ccc(c23)C1=O
TE-1
  IC50: > 32 µM
PC-3
  IC50: > 32 µM
SW1990
  IC50: > 32 µM
MGC-803
  IC50: > 32 µM
HGC-27
  IC50: > 32 µM

## C=C1C(=O)[C@]23[C@H](O)[C@H]1C[C@H](O)[C@H]2[C@]12CCCC(C)(C)[C@H]1C[C@H]3O[C@H]2OCCCCc1cn(CCOCCN2C(=O)c3cccc4c(N5CCCCC5)ccc(c34)C2=O)nn1
TE-1
  IC50: 2.7 µM
PC-3
  IC50: 1.24 µM
SW1990
  IC50: 2.25 µM
MGC-803
  IC50: 3.21 µM
HGC-27
  IC50: 1.95 µM

## C=C1C(=O)[C@]23[C@H](O)[C@H]1C[C@H](O)[C@H]2[C@]12CCCC(C)(C)[C@H]1C[C@H]3O[C@H]2OCCCCCc1cn(CCCN2C(=O)c3cccc4c(N5CCCCC5)ccc(c34)C2=O)nn1
TE-1
  IC50: 4.62 µM
PC-3
  IC50: 2.49 µM
SW1990
  IC50: 3.65 µM
MGC-803
  IC50: 2.43 µM
HGC-27
  IC50: 3.26 µM

## C=C1C(=O)[C@]23[C@H](O)[C@H]1C[C@H](O)[C@H]2[C@]12CCCC(C)(C)[C@H]1C[C@H]3O[C@H]2OCCCCCc1cn(CCOCCOCCN2C(=O)c3cccc4c(N5CCCCC5)ccc(c34)C2=O)nn1
TE-1
  IC50: 1.86 µM
PC-3
  IC50: 1.21 µM
SW1990
  IC50: 2.15 µM
MGC-803
  IC50: 2.64 µM
HGC-27
  IC50: 1.8 µM

## C=C1C(=O)[C@]23[C@H](O)[C@H]1C[C@H](O)[C@H]2[C@]12CCCC(C)(C)[C@H]1C[C@H]3O[C@H]2OCCc1cn(CCOCCOCCOCCN2C(=O)c3cccc4c(N5CCCCC5)ccc(c34)C2=O)nn1
TE-1
  IC50: 1.87 µM
PC-3
  IC50: 0.93 µM
SW1990
  IC50: 1.56 µM
MGC-803
  IC50: 2.65 µM
HGC-27
  IC50: 5.26 µM

## C=C1C(=O)[C@]23[C@H](O)[C@H]1C[C@H](O)[C@H]2[C@]12CCCC(C)(C)[C@H]1C[C@H]3O[C@H]2OCCCCCCc1cn(CCCN2C(=O)c3cccc4c(N5CCCCC5)ccc(c34)C2=O)nn1
TE-1
  IC50: 3.67 µM
PC-3
  IC50: 2.38 µM
SW1990
  IC50: 3.19 µM
MGC-803
  IC50: 6.06 µM
HGC-27
  IC50: 2.48 µM

## C=C1C(=O)[C@]23[C@H](O)[C@H]1C[C@H](O)[C@H]2[C@]12CCCC(C)(C)[C@H]1C[C@H]3O[C@H]2OCCc1cn(CCN2C(=O)c3cccc4c(N5CCCCC5)ccc(c34)C2=O)nn1
TE-1
  IC50: 3.34 µM
PC-3
  IC50: 2.5 µM
SW1990
  IC50: 0.88 µM
MGC-803
  IC50: 0.96 µM
HGC-27
  IC50: 2.64 µM

## C=C1C(=O)[C@]23[C@H](O)[C@H]1C[C@H](O)[C@H]2[C@]12CCCC(C)(C)[C@H]1C[C@H]3O[C@H]2OCCCc1cn(CCOCCOCCOCCN2C(=O)c3cccc4c(N5CCCCC5)ccc(c34)C2=O)nn1
TE-1
  IC50: 1.44 µM
PC-3
  IC50: 0.81 µM
SW1990
  IC50: 1.64 µM
MGC-803
  IC50: 2.18 µM
HGC-27
  IC50: 3.11 µM

## C=C1C(=O)[C@]23[C@H](O)[C@H]1C[C@H](O)[C@H]2[C@]12CCCC(C)(C)[C@H]1C[C@H]3O[C@H]2OCCCCc1cn(CCCN2C(=O)c3cccc4c(N5CCCCC5)ccc(c34)C2=O)nn1
TE-1
  IC50: 2.64 µM
PC-3
  IC50: 0.77 µM
SW1990
  IC50: 3.31 µM
MGC-803
  IC50: 1.2 µM
HGC-27
  IC50: 6.13 µM
